Reference: US20230233690A1, “ANDROGEN RECEPTOR PROTEIN DEGRADERS” (THE REGENTS OF THE UNIVERSITY OF MICHIGAN, priority 2020, published 2023)

Target: T1, AR protein (Homo sapiens, UniProt P10275)
T1 construct: endogenous in cells; host or cells: VCaP
T1 sequence (P10275 1-920): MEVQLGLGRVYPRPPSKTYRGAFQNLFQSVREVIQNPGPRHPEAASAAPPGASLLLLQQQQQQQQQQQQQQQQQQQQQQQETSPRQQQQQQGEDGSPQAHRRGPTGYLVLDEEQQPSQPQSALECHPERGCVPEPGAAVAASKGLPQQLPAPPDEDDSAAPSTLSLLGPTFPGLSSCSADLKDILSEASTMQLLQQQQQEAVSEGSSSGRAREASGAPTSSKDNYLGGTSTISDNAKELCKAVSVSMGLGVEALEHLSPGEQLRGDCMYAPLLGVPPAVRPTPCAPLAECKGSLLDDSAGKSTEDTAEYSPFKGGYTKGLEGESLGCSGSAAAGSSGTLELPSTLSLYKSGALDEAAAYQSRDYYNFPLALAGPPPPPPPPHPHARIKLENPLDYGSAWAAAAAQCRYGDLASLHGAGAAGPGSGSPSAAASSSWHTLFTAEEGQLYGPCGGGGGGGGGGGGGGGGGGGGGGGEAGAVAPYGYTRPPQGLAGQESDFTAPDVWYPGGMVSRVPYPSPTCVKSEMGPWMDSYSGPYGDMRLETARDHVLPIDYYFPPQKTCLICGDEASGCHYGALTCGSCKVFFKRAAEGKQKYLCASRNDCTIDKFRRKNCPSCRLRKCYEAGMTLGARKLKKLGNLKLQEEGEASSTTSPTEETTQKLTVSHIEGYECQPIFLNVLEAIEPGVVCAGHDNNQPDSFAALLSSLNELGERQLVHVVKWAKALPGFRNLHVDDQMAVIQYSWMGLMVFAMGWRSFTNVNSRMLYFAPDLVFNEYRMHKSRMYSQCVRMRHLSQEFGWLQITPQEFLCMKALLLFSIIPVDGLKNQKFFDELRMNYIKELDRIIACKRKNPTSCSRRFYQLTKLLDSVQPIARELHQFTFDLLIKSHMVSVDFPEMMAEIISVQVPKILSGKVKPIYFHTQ
Assay: Western blotting of AR protein degradation in VCaP cells
Type: cell-based
Conditions: for AR protein degradation VCap 10 nM / AR protein degradation VCap 100 nM: 24 hr treatment
Procedure: The treated cells were lysed with RIPA buffer. […] GAPDH was used as a loading control.
Bands were quantified with ImageJ software. The relative numbers of each band obtained from normalization with its corresponding GAPDH level were compared with Prism 8 software. The DC50 values were produced from Prism 8, and the DC90 values were calculated with an equation=Bottom+(Top−Bottom)/(1+10^((Log EC50−X)*HillSlope) based on DC50 and Hillslope values.

| SMILES | % AR protein degradation in VCaP Cells (0.001 μM) [%] | % AR protein degradation in VCaP Cells (0.01 μM) [%] | % AR protein degradation in VCaP Cells (0.1 μM) [%] | % AR protein degradation in VCaP Cells (1 μM) [%] | AR protein degradation VCap 10 nM | AR protein degradation VCap 100 nM |
| --- | --- | --- | --- | --- | --- | --- |
| CC(O)(CS(=O)(=O)c1ccc(N2CCN(C3CCN(c4ccc5c(c4)C(=O)N(C4CCC(=O)NC4=O)C5=O)CC3)CC2)cc1)C(=O)Nc1ccc(C#N)c(C(F)(F)F)c1 (stereo not drawn) [compound 241, N-(4-cyano-3-(trifluoromethyl)phenyl)-3-((4-(4-(1-(2-(2,6-dioxopiperidin-3-yl)-1,3-dioxoisoindolin-5-yl)piperidin-4-yl)piperazin-1-yl)phenyl)sulfonyl)-2-hydroxy-2-methylpropanamide] | 7 | 13 | −2 | 27 |  |  |
| N#Cc1ccc(O[C@H]2CC[C@H](Nc3ccc(C(=O)N4CCN(CC5CCN(c6ccc7c(c6)C(=O)N(C6CCC(=O)NC6=O)C7=O)CC5)CC4)cc3)CC2)cc1Cl (stereo partly drawn) [compound 13] |  |  |  |  | C (>10% degradation but <50% (24 hr treatment)) | B (>50% degradation but <90% (24 hr treatment)) |
| CN(c1ccc(C#N)c(Cl)c1)[C@H]1CC[C@H](NC(=O)c2ccc(N3CCN(C4CCN(c5ccc6c(c5)C(=O)N(C5CCC(=O)NC5=O)C6=O)CC4)CC3)cc2)CC1 (stereo partly drawn) [compound 30] |  |  |  |  | A (>90% degradation (24 hr treatment)) | A (>90% degradation (24 hr treatment)) |
| C[C@H]1C[C@H](NC(=O)c2ccc(N3CCN(CC4CCN(c5ccc6c(c5)C(=O)N(C5CCC(=O)NC5=O)C6=O)CC4)CC3)cc2)CC[C@H]1Oc1ccc(C#N)c(Cl)c1 (stereo partly drawn) [compound 24] |  |  |  |  | A (>90% degradation (24 hr treatment)) | A (>90% degradation (24 hr treatment)) |
| CN(c1ccc(C(=O)N2CCN(CC3CCN(c4ccc5c(c4)C(=O)N(C4CCC(=O)NC4=O)C5=O)CC3)CC2)cc1)[C@H]1CC[C@H](Oc2ccc(C#N)c(Cl)c2)CC1 (stereo partly drawn) [compound 15] |  |  |  |  |  | B (>50% degradation but <90% (24 hr treatment)) |
| N#Cc1ccc(O[C@H]2CC[C@H](Nc3ccc(C(=O)N4CCN(C5CN(c6ccc7c(c6)C(=O)N(C6CCC(=O)NC6=O)C7=O)C5)CC4)cc3)CC2)cc1Cl (stereo partly drawn) [Cpd. No. 17, 2-chloro-4-(((1r,4r)-4-((4-(4-(1-(2-(2,6-dioxopiperidin-3-yl)-1,3-dioxoisoindolin-5-yl)azetidin-3-yl)piperazinecarbonyl)phenyl)amino)cyclohexyl)oxy)benzonitrile] |  |  |  |  | B (>50% degradation but <90% (24 hr treatment)) | B (>50% degradation but <90% (24 hr treatment)) |
| CN(c1ccc(C#N)c(Cl)c1)[C@H]1CC[C@H](NC(=O)c2ccc(N3CCN(CC4CCN(c5ccc6c(c5)C(=O)N(C5CCC(=O)NC5=O)C6=O)CC4)CC3)cc2)CC1 (stereo partly drawn) [compound 29] |  |  |  |  | A (>90% degradation (24 hr treatment)) | A (>90% degradation (24 hr treatment)) |
| N#Cc1ccc(O[C@H]2CC[C@H](NC(=O)c3ccc4c(c3)CN(CC3CCN(c5ccc6c(c5)C(=O)N(C5CCC(=O)NC5=O)C6=O)CC3)C4)CC2)cc1Cl (stereo partly drawn) [compound 8] |  |  |  |  |  | A (>90% degradation (24 hr treatment)) |
| N#Cc1ccc(O[C@H]2CC[C@H](NC(=O)c3ccc4c(c3)CCN(CC3CCN(c5ccc6c(c5)C(=O)N(C5CCC(=O)NC5=O)C6=O)CC3)C4)CC2)cc1Cl (stereo partly drawn) [compound 9] |  |  |  |  |  | B (>50% degradation but <90% (24 hr treatment)) |
| C[C@H]1C[C@@H](NC(=O)c2ccc(N3CCN(C4CCN(c5ccc6c(c5)C(=O)N(C5CCC(=O)NC5=O)C6=O)CC4)CC3)cc2)CC[C@@H]1Oc1ccc(C#N)c(Cl)c1 (stereo partly drawn) [compound 25] |  |  |  |  | A (>90% degradation (24 hr treatment)) | A (>90% degradation (24 hr treatment)) |
| CC1(C)C(=O)N(c2ccc(C#N)c(C(F)(F)F)c2)C(=S)N1c1ccc(C(=O)N2CCN(C3CCN(c4ccc5c(c4)C(=O)N(C4CCC(=O)NC4=O)C5=O)CC3)CC2)c(F)c1 (stereo not drawn) [compound 242, 4-(3-(4-(4-(1-(2-(2,6-dioxopiperidin-3-yl)-1,3-dioxoisoindolin-5-yl)piperidin-4-yl)piperazine-1-carbonyl)-3-fluorophenyl)-4,4-dimethyl-5-oxo-2-thioxoimidazolidin-1-yl)-2-(trifluoromethyl)benzonitrile] | 14 | 6 | 18 | 31 |  |  |
| C[C@H]1C[C@@H](NC(=O)c2ccc(N3CCN(C4CN(c5ccc6c(c5)C(=O)N(C5CCC(=O)NC5=O)C6=O)C4)CC3)cc2)CC[C@@H]1Oc1ccc(C#N)c(Cl)c1 (stereo partly drawn) [compound 26] |  |  |  |  | A (>90% degradation (24 hr treatment)) | A (>90% degradation (24 hr treatment)) |
| N#Cc1ccc(O[C@H]2CC[C@H](NC(=O)c3ccc(N4CCN(CCCCNc5ccc6c(c5)C(=O)N(C5CCC(=O)NC5=O)C6=O)CC4)cc3)CC2)cc1Cl (stereo partly drawn) [compound 220, N-((1r,4r)-4-(3-chloro-4-cyanophenoxy)cyclohexyl)-4-(4-(4-((2-(2,6-dioxopiperidin-3-yl)-1,3-dioxoisoindolin-5-yl)amino)butyl)piperazin-1-yl)benzamide] | 18 | 60 | 80 | 62 |  |  |
| N#Cc1ccc(O[C@H]2CC[C@H](NC(=O)c3ccc(N4CCN(C5CCN(c6ccc7c(c6)C(=O)N(C6CCC(=O)NC6=O)C7=O)CC5)CC4)cc3)CC2)cc1Cl (stereo partly drawn) [Cpd. No. 21, N-((1r,4r)-4-(3-chloro-4-cyanophenoxy)cyclohexyl)-4-(4-(1-(2-(2,6-dioxopiperidin-3-yl)-1,3-dioxoisoindolin-5-yl)piperidin-4-yl)piperazin-1-yl)benzamide] |  |  |  |  | A (>90% degradation (24 hr treatment)) | A (>90% degradation (24 hr treatment)) |

Second part, led by results:

| % AR protein degradation in VCaP Cells (0.001 μM) [%] | % AR protein degradation in VCaP Cells (0.01 μM) [%] | % AR protein degradation in VCaP Cells (0.1 μM) [%] | % AR protein degradation in VCaP Cells (1 μM) [%] | SMILES | AR protein degradation VCap 10 nM | AR protein degradation VCap 100 nM |
| --- | --- | --- | --- | --- | --- | --- |
| −11 | −9 | 1 | 22 | N#Cc1ccc(O[C@H]2CC[C@H](NC(=O)c3ccc(NCCCCCCCCCCNc4ccc5c(c4)C(=O)N(C4CCC(=O)NC4=O)C5=O)cc3)CC2)cc1Cl (stereo partly drawn) [compound 216, N-((1r,4r)-4-(3-chloro-4-cyanophenoxy)cyclohexyl)-4-((10-((2-(2,6-dioxopiperidin-3-yl)-1,3-dioxoisoindolin-5-yl)amino)decyl)amino)benzamide] |  |  |
| 17 | 40 | 62 | 38 | N#Cc1ccc(O[C@H]2CC[C@H](NC(=O)c3ccc(NCCCCCCCNc4ccc5c(c4)C(=O)N(C4CCC(=O)NC4=O)C5=O)cc3)CC2)cc1Cl (stereo partly drawn) [compound 213, N-((1r,4r)-4-(3-chloro-4-cyanophenoxy)cyclohexyl)-4-((7-((2-(2,6-dioxopiperidin-3-yl)-1,3-dioxoisoindolin-5-yl)amino)heptyl)amino)benzamide] |  |  |
| 6 | 35 | 58 | 53 | N#Cc1ccc(O[C@H]2CC[C@H](NC(=O)c3ccc(NCCCCCCCCCNc4ccc5c(c4)C(=O)N(C4CCC(=O)NC4=O)C5=O)cc3)CC2)cc1Cl (stereo partly drawn) [compound 215, N-((1r,4r)-4-(3-chloro-4-cyanophenoxy)cyclohexyl)-4-((9-((2-(2,6-dioxopiperidin-3-yl)-1,3-dioxoisoindolin-5-yl)amino)nonyl)amino)benzamide] |  |  |
| 27 | 43 | 65 | 46 | N#Cc1ccc(O[C@H]2CC[C@H](NC(=O)c3ccc(NCCCCCCCCNc4ccc5c(c4)C(=O)N(C4CCC(=O)NC4=O)C5=O)cc3)CC2)cc1Cl (stereo partly drawn) [compound 214, N-((1r,4r)-4-(3-chloro-4-cyanophenoxy)cyclohexyl)-4-((8-((2-(2,6-dioxopiperidin-3-yl)-1,3-dioxoisoindolin-5-yl)amino)octyl)amino)benzamide] |  |  |
| 12 | 21 | 51 | 47 | N#Cc1ccc(O[C@H]2CCC[C@H](NC(=O)c3ccc(N4CCC(N5CCN(c6ccc7c(c6)C(=O)N(C6CCC(=O)NC6=O)C7=O)CC5)CC4)cc3)CCC2)cc1Cl (stereo partly drawn) [compound 228, N-((1r,5r)-5-(3-chloro-4-cyanophenoxy)cyclooctyl)-4-(4-(4-(2-(2,6-dioxopiperidin-3-yl)-1,3-dioxoisoindolin-5-yl)piperazin-1-yl)piperidin-1-yl)benzamide] |  |  |
